Patent US10370364B1, “Substituted chromenes for treatment of fibrosis or non-alcoholic steatohepatitis” (OSTEONEUROGEN INC., priority 2018, dated 2019)

Columns and labels:
[1] = tested on: α-SMA (alpha-smooth muscle actin); assay: α-SMA expression in ONGHEPA1 cells by immunofluorescent staining; type: cell-based, rat; details: TGF-β plus compound 50 μM
Excerpt: In addition, in order to examine whether the above-described effect would be attributable to the effect against epithelial-mesenchymal transition (EMT) (hereinafter referred to as “EMT”), the expression of α-SMA (alpha-smooth muscle actin), which is a representative marker of EMT, in the cells of each test group, was examined by immunofluorescent staining and nuclear staining (DAPI staining).

A549 cell line = assay: TGF-β-induced myofibroblast differentiation of A549 cell line; type: cell-based, human; details: A549, TGF-β 5 ng/ml, compound 25 or 50 μM, 24 or 48 hours
Protocol: The A549 cell line, which is a lung adenocarcinoma cell line used as a lung EMT-related study model, was seeded into medium, cultured for 24 hours, and then treated with TGF-β (5 ng/ml). Alternatively, the A549 cell line was co-treated with TGF-β and the compound of the present invention (25 or 50 μM in DMSO) and cultured for 24 or 48 hours. Next, the cells were examined with a phase contrast microscope (200×).

CYP2D6 = CYP2D6 (Homo sapiens, UniProt P10635)
CYP2D6, sequence (P10635 whole entry): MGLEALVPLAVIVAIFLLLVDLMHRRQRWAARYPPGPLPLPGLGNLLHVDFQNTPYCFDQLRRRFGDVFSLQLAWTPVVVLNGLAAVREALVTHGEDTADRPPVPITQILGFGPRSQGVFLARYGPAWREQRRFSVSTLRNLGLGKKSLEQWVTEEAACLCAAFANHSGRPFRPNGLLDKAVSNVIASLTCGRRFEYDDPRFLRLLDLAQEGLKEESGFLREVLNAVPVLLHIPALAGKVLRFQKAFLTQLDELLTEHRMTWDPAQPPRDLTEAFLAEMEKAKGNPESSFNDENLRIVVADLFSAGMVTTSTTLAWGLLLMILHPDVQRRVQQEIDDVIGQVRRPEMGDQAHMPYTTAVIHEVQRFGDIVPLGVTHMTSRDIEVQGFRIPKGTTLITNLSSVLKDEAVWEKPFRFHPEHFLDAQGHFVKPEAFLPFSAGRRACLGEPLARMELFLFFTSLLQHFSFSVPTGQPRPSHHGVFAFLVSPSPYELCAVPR

C57BL/6 mice = assay: Bleomycin-induced pulmonary fibrosis animal model; type: in vivo; details: for Mean Collagen % (histopathology collagen morphometry, left lung): Sirius red
Excerpt: 5-week-old male C57BL/6 mice (weighed 18.2 to 20.5 g) (KOATECH, Korea) were used as experimental animals and divided into several groups, each consisting of 5 animals.
The experimental animals were housed in a housing box having a size of 369 L×156 W×132H (mm) (EU, USA, UK GL compliance) made of a polysulfone material in a SPF (Specific Pathogen Free) and BSL (Bio Safety Level) 2 grade facility. The number of animals in each housing box was 2 to 3 during the period of quarantine and acclimatization and was also 2 to 3 during the experimental period, and the housing conditions were set to a temperature of 22±2° C., a relative humidity of 50.0±15.0%, a ventilation cycle of 10 to 20 times/hr, a light-dark cycle (a photoperiod) of 12 hr/day (07:00 to 19:00), and an illumination intensity of 150 to 300 Lux.
Pulmonary fibrosis was induced by injecting a bleomycin solution directly into the lungs via the trachea according to the intratracheal instillation (IT) method of Kremer, Laxer and Berkman et al. Specifically, C57BL/6J mice were anesthetized through inhalation with 70% N2O and 30% O2 gas and 1.5% isoflurane, and the skin of the anterior neck thereof was excised and the organs under the muscle thereof were exposed and then carefully excised using ophthalmic surgical scissors. 50 μL of a solution of bleomycin in distilled water was injected directly into the lungs all at once via the excised organ by use of a 1 mL syringe fitted with a 19-gauge injection needle having a blunt tip. Immediately after the injection, the excised skin of the anterior neck was sutured and the mice were allowed to recover from the anesthetic, and then housed in a general housing cage. The administration of bleomycin was performed using a visual instillobot, and bleomycin-HCl 40 μg/50 μL was administered once and a pulmonary fibrosis induction period of 12 days was set.
The compound of the present invention was used after dissolution in 30% HPCD aqueous solution (Formulation Example 5), and the dose for each individual was calculated based on the recent body weight thereof. 12 Days after the administration of bleomycin, the compound of the present invention was administered once a day (5 times a week) for 2 weeks. As a control, pirfenidone which is a therapeutic agent for idiopathic pulmonary fibrosis was administered in the same manner.
On 15 days after administration of the compound, the mice were sacrificed, and then the right lung of each mouse was dissected and the weight thereof was measured. […] In particular, it is noted that the inhibitory effect of the compound in the group administered at 10 mpk was the highest compared to that in the group administered at 50 or 100 mpk and was also higher than that in the group administered with pirfenidone 100 mpk.
The amounts of hydroxyproline (HP) and collagen in the dissected right lung were measured using a known method.
Histopathology collagen morphometry of the dissected left lung tissue was performed using a known method (calculating the area of collagen in an optical image obtained by Sirius red staining of the lung tissue sample).
The pathological conditions of the left lung tissue dissected using a known method were examined by H&E and Sirius Red staining. […] In particular, it is noted that the inhibitory effect of the compound in the group administered at 10 mpk was the highest compared to that in the groups administered at other concentrations.
In order to examine the effect of each treatment in this Experiment on the liver, the liver of each of the sacrificed mice was dissected, and the pathological conditions of the liver tissue were examined by H&E staining.

STAM mice = assay: Non-alcoholic steatohepatitis animal model (STAM mice), NAFLD activity score; type: in vivo; details: 50 mpk oral, Formulation Example 2, once a day five times a week
Protocol: STAM mice (SMC Laboratories, Inc., Japan), which are non-alcoholic steatohepatitis animal models, were used as experimental animals. These animal models were administered with streptozotocin immediately after birth, and fed with high-fat-diet after 3 weeks. Then, in the mouse model, non-alcoholic steatohepatitis occurred at 6 to 9 weeks, and liver fibrosis, cirrhosis and liver cancer occurred within 9 to 12 weeks.
Over 6 to 9 weeks after administration of streptozotocin, the compound of the present invention, dissolved in a mixture solution of Tween80 and 0.5% CMC aqueous solution (1:99 (v/v)) (Formulation Example 2), was orally administered to the animal models once a day (five times a week). As controls, telmisartan and OCA (obeticholic acid) were administered in the same manner.
At […] after administration of streptozotocin (a time point after 3-week administration of the compound), the mice were sacrificed, the liver of each mouse was dissected, the invasion of inflammatory cells was observed by […] of the liver tissue, and fibrosis of the liver tissue was observed by Sirius Red staining (see FIG. 42). In addition, the degrees of inflammation, fibrosis, liver cell ballooning and adipose accumulation observed were measured, data integration was performed, and the NAFLD (nonalcoholic fatty liver disease) activity score was statistically processed by t-test.

CYP3A4 = CYP3A4 (Homo sapiens, UniProt P08684); assay: CYP450 inhibition, CYP3A4
CYP3A4, sequence (P08684 whole entry): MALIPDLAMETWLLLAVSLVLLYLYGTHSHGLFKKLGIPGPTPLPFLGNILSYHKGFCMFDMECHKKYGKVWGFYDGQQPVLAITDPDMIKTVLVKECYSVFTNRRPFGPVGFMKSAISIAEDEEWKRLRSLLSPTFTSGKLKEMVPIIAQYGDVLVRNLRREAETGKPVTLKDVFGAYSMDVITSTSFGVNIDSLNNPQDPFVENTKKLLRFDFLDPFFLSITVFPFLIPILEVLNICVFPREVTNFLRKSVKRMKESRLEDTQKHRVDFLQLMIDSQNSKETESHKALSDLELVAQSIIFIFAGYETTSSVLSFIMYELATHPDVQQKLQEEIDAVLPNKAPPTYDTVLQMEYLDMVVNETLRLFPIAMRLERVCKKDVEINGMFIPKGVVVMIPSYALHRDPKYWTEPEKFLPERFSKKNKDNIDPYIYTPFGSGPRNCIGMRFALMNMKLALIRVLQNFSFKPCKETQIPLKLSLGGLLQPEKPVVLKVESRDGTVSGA

CYP2C9 = CYP2C9 (Homo sapiens, UniProt P11712)
CYP2C9, sequence (P11712 whole entry): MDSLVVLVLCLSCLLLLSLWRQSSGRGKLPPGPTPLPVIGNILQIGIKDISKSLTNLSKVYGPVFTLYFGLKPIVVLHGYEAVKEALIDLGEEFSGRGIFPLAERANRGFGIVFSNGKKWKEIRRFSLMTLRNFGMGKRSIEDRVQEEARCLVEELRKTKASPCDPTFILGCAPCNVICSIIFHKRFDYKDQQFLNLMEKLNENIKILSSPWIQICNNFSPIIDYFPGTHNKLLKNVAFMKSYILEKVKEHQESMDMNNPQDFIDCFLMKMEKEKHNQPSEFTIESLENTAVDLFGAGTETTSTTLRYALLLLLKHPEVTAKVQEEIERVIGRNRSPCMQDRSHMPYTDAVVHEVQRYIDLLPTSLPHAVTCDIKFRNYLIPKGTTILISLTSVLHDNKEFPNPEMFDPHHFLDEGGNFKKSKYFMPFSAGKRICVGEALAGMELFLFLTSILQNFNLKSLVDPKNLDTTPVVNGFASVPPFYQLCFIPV

In the case of `COc1ccc(-c2cc(=O)c3c(O)c(OC)c(OCCN4CCNC(=O)C4)cc3o2)cc1OC` [Compound 1, 4-(2-((2-(3,4-dimethoxyphenyl)-5-hydroxy-6-methoxy-4-oxo-4H-chromen-7-yl)oxy)ethyl)piperazin-2-one], the “expression of α-SMA” value [1] is reported as “inhibited”, the myofibroblast differentiation (A549 cell line) is reported as “inhibited” and the “inhibitory activity against CYP2D6 (in words)” value (CYP2D6) is reported as “little or very low inhibitory activity”. For the same compound, the “Protection Collagen %” value (C57BL/6 mice; 10 mpk PO) was 59%, the “Mean Collagen % (histopathology collagen morphometry, left lung)” value (C57BL/6 mice; 10 mpk PO) was 2.8% and the “inhibitory effect on right lung weight, comparison of dose groups” value (C57BL/6 mice; 10 mpk compared to 50 or 100 mpk and pirfenidone 100 mpk) was “the highest”. For the same compound, the “inhibitory effect on lung fibrosis symptoms, comparison of dose groups” value (C57BL/6 mice; 10 mpk compared to other concentrations) was “the highest”, the “Protection Collagen %” value (C57BL/6 mice; 50 mpk PO) was 66% and the “Mean Collagen % (histopathology collagen morphometry, left lung)” value (C57BL/6 mice; 50 mpk PO) was 2.4%. The “Protection Collagen %” value (C57BL/6 mice; 100 mpk PO) was 59%, the “Mean Collagen % (histopathology collagen morphometry, left lung)” value (C57BL/6 mice; 100 mpk PO) was 2.8% and the “amount of collagen in right lung” value (C57BL/6 mice; bleomycin mice, 10-100 mpk PO) was “significantly inhibited this increase”. The “amount of hydroxyproline (HP) in right lung” value (C57BL/6 mice; bleomycin mice, 10-100 mpk PO) was “significantly inhibited this increase”, the “fibrosis symptoms of left lung tissue, H&E and Sirius Red staining” value (C57BL/6 mice; bleomycin mice, 10-100 mpk PO) was “significantly inhibited such fibrosis symptoms” and the “increase of collagen in left lung tissue, morphometry (in words)” value (C57BL/6 mice; bleomycin mice, 10-100 mpk PO) was “significantly inhibited this increase”. The “increase in the right lung weight” value (C57BL/6 mice; bleomycin mice, 10-100 mpk PO in 30% HPCD, once a day 5 times a week for 2 weeks) was “significantly inhibited”, the “pathological condition of liver tissue, H&E staining” value (shortened to “pathological condition”) (C57BL/6 mice; bleomycin mice, 50 mpk) was “showed hepatotoxic symptoms” and the “pathological condition” value (C57BL/6 mice; bleomycin mice, 100 mpk) was “showed hepatotoxic symptoms”. For the same compound, the “inhibitory effect on collagen, comparison of dose groups” value (C57BL/6 mice; group administered at 100 mpk) was “highest”, the “inhibitory effect on hydroxyproline, comparison of dose groups” value (C57BL/6 mice; group administered at 100 mpk) was “highest” and the “pathological condition” value (C57BL/6 mice; mouse, in vivo, 10 mg/kg) was “showed the same condition as that of normal liver tissue”. For the same compound, the “NAFLD activity score (t-test)” value (STAM mice) was “statistically significant anti-NASH effects”, the IC50 (CYP3A4; 3A4-midazolam IC50, substrate midazolam) was greater than 50 µM and the IC50 (CYP3A4; 3A4-testosterone IC50, substrate testosterone) was 49.7 µM. The “inhibitory activity against CYP2C9 (in words)” value (CYP2C9) was “slight inhibitory activity”.
